US11111232B2, “Substituted cyclobutylpyridine and cyclobutylpyrimidine compounds as indoleamine 2,3-dioxygenase (IDO) inhibitors” (MERCK SHARP & DOHME CORP., priority 2017, dated 2021)
pIC50: −log10 of the molar value.

Key:
Type in all cases: cell-based
[1] = target: T1, IDO1 (Homo sapiens, UniProt P14902); experiment: IDO1 cellular assay in Hela cells stimulated with IFNγ; conditions: IFNγ 100 ng/mL, 300 uM L-tryptophan, about 48 hours, fluorescence readout
Method: IDO1 Cellular Assay in Hela Cells Stimulated with IFNγ
Hela cells were cultured in complete Hela culture medium (90% EMEM, 10% heat-inactivated fetal bovine serum) and expanded to about 1×10^9 cells. The cells were then collected and frozen down at 1×10^7 cells/vial in 1 mL frozen medium (90% complete Hela culture medium, 10% DMSO)
Compounds to be tested were serially diluted in ten 3-fold steps in DMSO starting from 10 mM DMSO stocks in Echo low volume plate(s).
Frozen Hela cells were thawed and transferred into Hela assay medium (99% complete Hela culture medium, 1% Pen/Strep) with 20 mL medium/vial of cells. The cells were spun down at 250 g in a table top centrifuge for 5 min and suspended in same volume of Hela assay medium. […] Sterile L-tryptophan were added to the cells with final concentration of 300 uM L-tryptophan. A small aliquot (2 mL/plate) of Hela cells were set aside and were not treated with IFNγ, to serve as the Max-E control.
Hela cells with and without IFNγ were dispensed to the respective wells of 384-well assay plates containing the compounds. The plates were incubated for about 48 hours at a 37° C., 5% CO2 incubator. Afterwards, […] of 0.5 M methyl isonipecotate in dimethyl sulfoxide were added into each well and the plates were sealed and incubated at 37° C. without CO2 overnight. The plates were centrifuged for 1 min at 200×g. The resulting fluorescence was measured in a Spectramax plate reader (Molecular Devices) with a 400 nm excitation filter and a 510 nm emission filter.
Potencies were calculated by linear least squares fit to the four parameter logistic IC50 equation.

[2] = target: T2, TDO (Homo sapiens, UniProt P48775); experiment: TDO cellular assay in frozen SW48 cells; conditions: 300 uM L-tryptophan, about 48 hours, fluorescence readout
T2 construct: endogenous in cells; host or cells: SW48 cells (A2780 cells as low-TDO control)
Method: TDO Cellular Assay in Frozen SW48 Cells
SW48 cells were cultured in complete RPMI culture medium (90% RPMI, 10% heat-inactivated fetal bovine serum).
Compounds to be tested were serially diluted in ten 3-fold steps in DMSO starting from 10 mM DMSO stocks in Echo low volume plate(s). […] The cells were spun down at 350 g in a table top centrifuge for 5 minutes and suspended in same volume of RPMI assay medium. […] Sterile L-tryptophan (Sigma, Cat #T0254) was added to the cells with final concentration of 300 uM.
SW48 and A2780 cells were dispensed to the respective wells of 384-well assay plates containing the compounds. The plates were incubated for about 48 hours at a 37° C., 5% CO2 incubator. Afterwards, 12 μL of 0.5 M ethyl isonipecotate (Sigma Aldrich, Cat #E33505) in dimethyl sulfoxide were added into each well and the plates were sealed and incubated at 37° C. without CO2 overnight. The plates were centrifuged for 1 minute at 200×g. The resulting fluorescence was measured in a Spectramax plate reader (Molecular Devices) with a 400 nm excitation filter and a 510 nm emission filter.
The fluorescence intensity of each well was corrected for the background observed in wells with A2780 cells and was expressed as a fraction of the intensity observed in wells of SW48 cells and DMSO only. Potencies were calculated by linear least squares fit to the four parameter logistic IC50 equation.

[3] = target: T1, IDO1; experiment: IDO1 human whole blood assay; parameters: Human whole blood was drawn in sodium heparin coated tubes from healthy internal donors; from tissue; host or cells: human whole blood from healthy donors, stimulated with LPS and IFNγ; conditions: LPS and IFNγ 100 ng/mL, 18 h, kynurenine by LC/MS/MS
Method: IDO1Human Whole Blood Assay
Compounds to be tested were serially diluted in ten 3-fold steps in DMSO starting from 10 mM. […] LPS and IFNγ was prepared in RPMI to a 10× of final conc. (1000 ng/mL), final concentration is 100 ng/mL.
Human whole blood was drawn in sodium heparin coated tubes from healthy internal donors. […] of blood was transferred to each of the wells of a v-bottom 96 well plate. […] of compound was transferred from intermediate dilution plate, and incubated for 15 min. 30 μL from stimulants was then transferred to blood and mixed thoroughly. Plate was covered with breathable membrane and incubated at 37° C. for overnight (18 h).
On day 2 isotope labeled standard of kynurenine and tryptophan was made in water at 10× concentration and […] was added to the blood at […] final concentration. The assay plates were centrifuged at 300×G for 10 min with no brake to separate plasma from red blood cells. […] of plasma samples was removed without disturbing red blood cells. Plasma was diluted with RPMI in 1:1 ratio and proteins were precipitated out with two volume of Acetonitrile. The plates was centrifuged at 4000×G for 60 min. 20 mL of supernatant was carefully transferred to a 384 well plate contain 40 mL of 0.1% formic acid in water and analyzed by LC/MS/MS.
LC/MS/MS analyses were performed using Thermo Fisher's LX4-TSQ Quantum Ultra system. This system consists of four Agilent binary high-performance liquid chromatography (HPLC) pumps and a TSQ Quantum Ultra triple quadruple MS/MS instrument. For each sample, […] were injected onto an Atlantis T3 column (2.1 mm×150 mm, […]) from Waters. The mobile phase gradient pumped at 0.8 mL/min was used to elute the analytes from the column at 25° C. […] Mobile phase A consisted of 0.1% formic acid in water. Mobile phase B consisted of 0.1% of formic acid in acetonitrile. Data was acquired in positive mode using a HESI interface. The operational parameters for the TSQ Quantum Ultra instrument were a spray voltage of 4000 V, capillary temperature of 380° C., vaporizer temperature 400° C., shealth gas 60 arbitrary units, Aux gas 20 arbitrary units, tube lens 85 and collision gas 1.2 mTorr. […] The peak area was integrated by Xcalibur Quan software. The ratios between the kynurenine generated in the reaction and 2D6-Kynurenine spiked-in internal standard were used to generate percentage inhibition and IC50 values. Compounds were titrated and IC50′s were calculated by 4 parameter sigmoidal curve fitting formula.

T1 sequence (P14902 whole entry): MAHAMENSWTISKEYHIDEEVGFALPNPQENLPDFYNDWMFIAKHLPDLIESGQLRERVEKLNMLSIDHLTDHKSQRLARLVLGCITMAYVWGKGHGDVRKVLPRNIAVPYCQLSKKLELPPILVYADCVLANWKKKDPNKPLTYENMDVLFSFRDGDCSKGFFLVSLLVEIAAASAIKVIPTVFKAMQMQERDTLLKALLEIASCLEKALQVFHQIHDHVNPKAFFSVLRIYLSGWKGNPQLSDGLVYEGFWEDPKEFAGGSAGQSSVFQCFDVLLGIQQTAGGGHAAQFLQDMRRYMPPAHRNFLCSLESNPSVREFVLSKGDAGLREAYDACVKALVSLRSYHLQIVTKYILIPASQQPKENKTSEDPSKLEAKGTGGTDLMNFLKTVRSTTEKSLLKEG
T2 sequence (P48775 whole entry): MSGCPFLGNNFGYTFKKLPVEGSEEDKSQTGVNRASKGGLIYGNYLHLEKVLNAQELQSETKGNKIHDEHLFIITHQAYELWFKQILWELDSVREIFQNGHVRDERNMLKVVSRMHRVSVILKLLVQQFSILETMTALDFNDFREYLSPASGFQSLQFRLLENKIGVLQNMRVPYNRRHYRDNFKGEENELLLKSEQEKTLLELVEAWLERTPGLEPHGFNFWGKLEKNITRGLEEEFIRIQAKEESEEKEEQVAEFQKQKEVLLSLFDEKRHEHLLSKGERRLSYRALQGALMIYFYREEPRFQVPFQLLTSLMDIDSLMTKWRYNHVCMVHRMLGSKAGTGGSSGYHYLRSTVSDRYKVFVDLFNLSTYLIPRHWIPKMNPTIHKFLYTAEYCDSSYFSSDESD

Row | Structure (SMILES) | pIC50 [1] | pIC50 [2] | pIC50 [3]
1 | O=C(Nc1ccc(C2(C(=O)Nc3ccc(F)nc3)CCC2)cn1)C1CCCCC1 [Example 7, N-(5-{1-[(6-fluoropyridin-3-yl)carbamoyl]cyclobutyl}pyridin-2-yl) cyclohexanecarboxamide] | 7.60 | ≤ 5.00 | 5.07
2 | O=C(Nc1ccc(C2(C(=O)Nc3ccc(F)cc3)CCC2)cn1)c1cccc(Cl)c1F [Example 14, 3-chloro-2-fluoro-N-(5-{1-[(4-fluorophenyl)carbamoyl]cyclobutyl}pyridin-2-yl)benzamide] | 5.68 | ≤ 5.00 | 6.80
3 | O=C(Nc1ccc(C2(C(=O)Nc3ccc(F)cc3)CCC2)cn1)c1cccc(F)c1 [Example 23, 3-Fluoro-N-(5-(1-((4-fluorophenyl)carbamoyl)cyclobutyl)pyridin-2-yl)benzamide] | 8.52 | ≤ 5.00 | 6.99
4 | N#Cc1cccc(C(=O)Nc2ccc(C3(C(=O)Nc4ccc(F)cc4)CCC3)cn2)c1 [Example 24, 3-cyano-N-(5-{1-[(4-fluorophenyl)carbamoyl]cyclobutyl}pyridin-2-yl)benzamide] | 8.10 | ≤ 5.00 | 6.45
5 | O=C(Nc1ccc(C2(C(=O)Nc3ccc(F)cc3)CCC2)cn1)c1cncc(Cl)c1 [Example 25, 5-chloro-N-(5-{1-[(4-fluorophenyl)carbamoyl]cyclobutyl}pyridin-2-yl)pyridine-3-carboxamide] | 7.92 | ≤ 5.00 | 6.25
6 | O=C(Nc1ccc(C2(C(=O)Nc3ccc(F)cc3)CCC2)cn1)c1ccnc(C(F)(F)F)c1 [Example 29, N-(5-{1-[(4-fluorophenyl)carbamoyl]cyclobutyl}pyridin-2-yl)-2-(trifluoromethyl)pyridine-4-carboxamide] | 7.55 | ≤ 5.00 | 5.54
7 | O=C(Nc1ccc(C2(C(=O)Nc3ccc(F)cc3)CCC2)nc1)c1cccc(Cl)c1 [Example 36, 3-Chloro-N-(6-(1-((4-fluorophenyl)carbamoyl)cyclobutyl)pyridin-3-yl)benzamide] | 8.52 | ≤ 5.00 | 6.60
8 | O=C(Nc1ccc(C2(C(=O)Nc3ccc(F)cn3)CCC2)nc1)c1cccc(Cl)c1 [Example 37, 3-chloro-N-(6-{1-[(5-fluoropyridin-2-yl)carbamoyl]cyclobutyl}pyridin-3-yl)benzamide] | 7.82 | ≤ 5.00 | 5.75
9 | O=C(Nc1ccc(C2(NC(=O)c3ccc(Cl)nc3)CCC2)nc1)c1cc(F)cc(F)c1 [Example 41, 6-chloro-N-(1-{5-[(3,5-difluorobenzene-1-carbonyl)amino]pyridin-2-yl}cyclobutyl)pyridine-3-carboxamide] | 8.05 | ≤ 5.00 | 6.39

Next, values leading:

Row | pIC50 [1] | pIC50 [2] | pIC50 [3] | Structure (SMILES)
10 | 8.10 | ≤ 5.00 | 6.16 | O=C(Nc1ccc(C2(NC(=O)c3ccc(Cl)nc3)CCC2)nc1)c1cccc(Cl)c1 [Example 42, 6-chloro-N-(1-{5-[(3-chlorobenzene-1-carbonyl)amino]pyridin-2-yl}cyclobutyl)pyridine-3-carboxamide]
11 | 5.92 | ≤ 5.00 |  | N#Cc1cncc(C(=O)Nc2ccc(C3(NC(=O)c4ccc(Cl)nc4)CCC3)nc2)c1 [Example 49, N-(6-{1-[(6-chloropyridine-3-carbonyl)amino]cyclobutyl}pyridin-3-yl)-5-cyanopyridine-3-carboxamide]
12 | 5.77 | ≤ 5.00 |  | O=C(NC1(c2ccc(NC(=O)c3ncccn3)cn2)CCC1)c1ccc(Cl)nc1 [Example 50, N-(6-{1-[(6-chloropyridine-3-carbonyl)amino]cyclobutyl}pyridin-3-yl)pyrimidine-2-carboxamide]
13 | 7.70 | ≤ 5.00 |  | O=C(Nc1ccc(C2(NC(=O)c3ccc(Cl)nc3)CCC2)nc1)c1cccc(F)c1 [Example 51, 6-chloro-N-(1-{5-[(3-fluorobenzene-1-carbonyl)amino]pyridin-2-yl}cyclobutyl)pyridine-3-carboxamide]
14 | 8.70 |  | 8.05 | O=C(Nc1ccc(C2(C(=O)Nc3ccc(F)cc3)CCC2)nc1CO)c1cccc(Cl)c1 [Example 55, 3-Chloro-N-(6-(1-((4-fluorophenyl)carbamoyl)cyclobutyl)-2-(hydroxymethyl)pyridin-3-yl)benzamide]
